Twelve compounds from PubChem BioAssay (NCI) can be followed below.

“And” between values parts separate entries of the source, which are not always exact repeats. Equal values may be shown once.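 Five concentrations, 48 hours, 96-well plates. GI50 is the concentration that inhibits growth by half. TGI marks complete inhibition of growth.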

The subject of the first experiment is RXF 393 renal. In words: NCI-60 cell line screen, 48 h.
In turn, `CCOC(=O)C1(C)CCC(C(C(=O)O)C(=O)O)CC1=O` (stereo not drawn) had a TGI greater than 100 µM.
Compound `CC1NOC(=O)C1N=Nc1ccc(Cl)cc1Cl` (stereo not drawn) yielded a TGI of 46.1 µM.
The same measure, in the same setting: under `CCOC(=O)/C(=C/c1ccccn1)C(=O)c1ccccc1` stands 24.2 µM.
`O=C(c1ccccc1)[C@H]1Nc2ccc(Cl)cc2[C@H]2CCC[C@@H]12` yielded a TGI of 82.6 µM.
Regarding `COc1cc(/C=C2\NC(=O)C(Cc3cc(OC)c(OC)c(C)c3OC)N(C(C)=O)C2=O)c(OC)c(C)c1OC` (stereo not drawn), the TGI was greater than 100 µM.
Turning to `COc1cc(C(=O)/C=C/c2cccc(Nc3ccnc4cc(Cl)ccc34)c2)cc(OC)c1OC`, the GI50 is 1.08 µM and the TGI was 2.48 µM.
For `O=NN(CCCl)C(=O)NC1CCC(CC(=O)O)CC1` (stereo not drawn), the TGI is greater than 100 µM.
`NNC(=O)C(=O)NN=C(C(Cl)(Cl)CO)C(Cl)(Cl)CO` returned a TGI of 72.7 µM.
Compound `O=C1N[C@@H]2CCCC[C@@H]2C12CCCCC2` displayed a TGI greater than 100 µM.
`COc1ccc2ccccc2c1C1=NC(C)(C)CO1` gave a TGI greater than 100 µM.
`CC(=O)OC1COC(N2CCc3cc([N+](=O)[O-])ccc32)C(OC(C)=O)C1OC(C)=O` (stereo not drawn) registered a TGI greater than 100 µM.

The test system of a further experiment is MOLT-4 leukemia. In words: NCI-60 cell line screen, 48 h.
`CCOC(=O)C1(C)CCC(C(C(=O)O)C(=O)O)CC1=O` (stereo not drawn) returned a TGI greater than 100 µM.
Same read-out and setting: for `CC1NOC(=O)C1N=Nc1ccc(Cl)cc1Cl` (stereo not drawn) the value was 50.7 µM; for `CCOC(=O)/C(=C/c1ccccn1)C(=O)c1ccccc1`, 26 µM; for `O=C(c1ccccc1)[C@H]1Nc2ccc(Cl)cc2[C@H]2CCC[C@@H]12`, 86.8 µM.
Compound `COc1cc(/C=C2\NC(=O)C(Cc3cc(OC)c(OC)c(C)c3OC)N(C(C)=O)C2=O)c(OC)c(C)c1OC` (stereo not drawn) came in with a TGI greater than 100 µM.
In the case of `COc1cc(C(=O)/C=C/c2cccc(Nc3ccnc4cc(Cl)ccc34)c2)cc(OC)c1OC`, the GI50 was 1.79 µM and the TGI stood at 6.46 µM.
Regarding `O=NN(CCCl)C(=O)NC1CCC(CC(=O)O)CC1` (stereo not drawn), the TGI is > 100 µM and 63.2 µM.
`NNC(=O)C(=O)NN=C(C(Cl)(Cl)CO)C(Cl)(Cl)CO` displayed a TGI of 50.7 µM.
Same read-out and setting: for `O=C1N[C@@H]2CCCC[C@@H]2C12CCCCC2` the value was greater than 100 µM; for `COc1ccc2ccccc2c1C1=NC(C)(C)CO1`, greater than 100 µM.
`CC(=O)OC1COC(N2CCc3cc([N+](=O)[O-])ccc32)C(OC(C)=O)C1OC(C)=O` (stereo not drawn) had a TGI greater than 100 µM.
In the case of `O=[N+]([O-])c1ccc(-c2ccc(C3=Nn4c(CNc5ccccc5Cl)nnc4SC3)o2)cc1`, the TGI was greater than 100 µM.

A further experiment concerns HCC-2998 colon. In words: NCI-60 cell line screen, 48 h.
On to `CCOC(=O)C1(C)CCC(C(C(=O)O)C(=O)O)CC1=O` (stereo not drawn), for which the TGI was greater than 100 µM.
Compound `CC1NOC(=O)C1N=Nc1ccc(Cl)cc1Cl` (stereo not drawn) registered a TGI of 80.4 µM.
For the compound `CCOC(=O)/C(=C/c1ccccn1)C(=O)c1ccccc1`, the TGI worked out at 31.3 µM.
As for `O=C(c1ccccc1)[C@H]1Nc2ccc(Cl)cc2[C@H]2CCC[C@@H]12`, the TGI is greater than 100 µM.
Still for that read-out and setting: for `COc1cc(/C=C2\NC(=O)C(Cc3cc(OC)c(OC)c(C)c3OC)N(C(C)=O)C2=O)c(OC)c(C)c1OC` (stereo not drawn) the value was greater than 100 µM.
For the compound `COc1cc(C(=O)/C=C/c2cccc(Nc3ccnc4cc(Cl)ccc34)c2)cc(OC)c1OC`, the GI50 is 1.72 µM and the TGI is 3.21 µM.
On to `O=NN(CCCl)C(=O)NC1CCC(CC(=O)O)CC1` (stereo not drawn), for which the TGI is greater than 100 µM.
Still for that read-out and setting: under `NNC(=O)C(=O)NN=C(C(Cl)(Cl)CO)C(Cl)(Cl)CO` stands greater than 100 µM; under `O=C1N[C@@H]2CCCC[C@@H]2C12CCCCC2`, greater than 100 µM; under `O=[N+]([O-])c1ccc(-c2ccc(C3=Nn4c(CNc5ccccc5Cl)nnc4SC3)o2)cc1`, greater than 100 µM.

The subject of another experiment is SK-MEL-2 melanoma. In words: NCI-60 cell line screen, 48 h.
For `CC1NOC(=O)C1N=Nc1ccc(Cl)cc1Cl` (stereo not drawn), the TGI was 75 µM.
Turning to `CCOC(=O)/C(=C/c1ccccn1)C(=O)c1ccccc1`, the TGI was 28.9 µM.
The compound `O=C(c1ccccc1)[C@H]1Nc2ccc(Cl)cc2[C@H]2CCC[C@@H]12` showed a TGI of 49.5 µM.
`COc1cc(/C=C2\NC(=O)C(Cc3cc(OC)c(OC)c(C)c3OC)N(C(C)=O)C2=O)c(OC)c(C)c1OC` (stereo not drawn) gave a TGI greater than 100 µM.
Compound `O=NN(CCCl)C(=O)NC1CCC(CC(=O)O)CC1` (stereo not drawn) displayed a TGI greater than 100 µM.
`NNC(=O)C(=O)NN=C(C(Cl)(Cl)CO)C(Cl)(Cl)CO`: the TGI is greater than 100 µM.
Same read-out and setting: under `COc1ccc2ccccc2c1C1=NC(C)(C)CO1` stands greater than 100 µM; under `CC(=O)OC1COC(N2CCc3cc([N+](=O)[O-])ccc32)C(OC(C)=O)C1OC(C)=O` (stereo not drawn), greater than 100 µM.
Still for that read-out and setting: under `O=[N+]([O-])c1ccc(-c2ccc(C3=Nn4c(CNc5ccccc5Cl)nnc4SC3)o2)cc1` stands greater than 100 µM.

The test system of another experiment is OVCAR-5 ovarian. The experiment can be described thus: NCI-60 cell line screen, 48 h.
`CCOC(=O)C1(C)CCC(C(C(=O)O)C(=O)O)CC1=O` (stereo not drawn) returned a TGI greater than 100 µM.
The compound `CC1NOC(=O)C1N=Nc1ccc(Cl)cc1Cl` (stereo not drawn) gave a TGI greater than 100 µM.
Turning to `CCOC(=O)/C(=C/c1ccccn1)C(=O)c1ccccc1`, the TGI stood at 33.5 µM.
Consider `O=C(c1ccccc1)[C@H]1Nc2ccc(Cl)cc2[C@H]2CCC[C@@H]12`, for which the TGI was greater than 100 µM.
Still for that read-out and setting: for `COc1cc(/C=C2\NC(=O)C(Cc3cc(OC)c(OC)c(C)c3OC)N(C(C)=O)C2=O)c(OC)c(C)c1OC` (stereo not drawn) the value was greater than 100 µM.
Consider `COc1cc(C(=O)/C=C/c2cccc(Nc3ccnc4cc(Cl)ccc34)c2)cc(OC)c1OC`, for which the GI50 is 1.7 µM and the TGI stood at 3.29 µM.
The compound `O=NN(CCCl)C(=O)NC1CCC(CC(=O)O)CC1` (stereo not drawn) had a TGI greater than 100 µM.
